US20060018921A1, “Histone deacetylase inhibitors and cognitive applications” (priority 2004, published 2006)
Entries after “also recorded” stand apart in the source; their conditions may differ.

Tests used:
[1] = Contextual fear conditioning, freezing behavior; details: for spontaneous freezing behavior on re-exposure 24 h after mock training, no shock (FIG. 11D): sodium butyrate 1.2 g/kg vs saline; for spontaneous freezing behavior during mock training, no shock (FIG. 11C): sodium butyrate 1.2 g/kg, 3 min in training chamber
[2] = test system: histone H4 (Lys5/Lys8/Lys12/Lys16); assay: Acetylation of histone H4 in area CA1 after contextual fear conditioning; details: injection of MK-801 1 h prior to or SL327 immediately after training
histone H3 (Lys14) [3] = assay: Acetylation of histone H3 in area CA1 after contextual fear conditioning; details: injection of MK-801 1 h prior to or SL327 immediately after training
ERK2 [4] = assay: P-ERK2 western blot of area CA1 after contextual fear conditioning; details: MK-801 300 μg/kg 1 h prior to training; SL327 100 mg/kg immediately after training
[5] = test system: Schaffer-collateral synapses; assay: Slice electrophysiology, basal synaptic transmission (baseline fEPSP, input/output, paired-pulse facilitation, tetanus depolarization); type: cell-based, Sprague-Dawley rats
ERK2 [6] = assay: P-ERK2 western blot, acute hippocampal slices, area CA1; details: slices treated 1 h; PDA 3 μM, FSK 50 μM with 100 μM Ro20-1724, U0126 20 μM, PD98059 50 μM, 4αP 3 μM, dFSK 50 μM with 100 μM Ro20-1724, TSA
ras transformed cells = details: Taunton et al., 1996; cited from earlier work
[7] = test system: histone H4 (Lys5/Lys8/Lys12/Lys16); assay: Acetylation of histone H4, acute hippocampal slices, area CA1
[8] = mouse model; Takahashi et al., 1996; cited from earlier work
animals deficient in CBP = details: infusion directly into the brain of animals deficient in CBP; Korzus et al., Alarcon et al. (2004); cited from earlier work
NMDA-Rs = assay: NMDA-R mediated synaptic transmission in slices with CNQX; type: cell-based, Sprague-Dawley rats; details: TSA 1.65 μM over 3 h; CNQX 20 μM, ACSF with 4 mM CaCl2 and no MgCl2
Experimental: In FIG. 8A, slices were exposed to the AMPA-R antagonist CNQX (20 μM) and perfused with an ACSF containing 4 mM CaCl2 and no MgCl2. The resulting field potentials represent NMDA-R mediated synaptic transmission (English and Sweatt, 1997). […] Representative traces immediately before (dashed) and 186 min after (solid) introduction of TSA are shown. Calibration bar indicates 5 msec and 1 mV. In FIG. 8B, slices were exposed to both TSA (1.65 μM) and the NMDA-R antagonist AP5 (50 μM) 20 min prior to LTP induction. After induction of LTP, the AP5 was washed out but slices were still exposed to TSA. Induction of LTP in the presence of TSA was blocked by AP5 (n=8, F[89,612]=0.5, p<1). […] In FIG. 8C, depolarization was measured during a 100 Hz tetanus in slices treated with either vehicle (0.05% EtOH, n=10) or TSA (1.65 μM, n=10) for 20 min. […]
In another series of studies, the present inventors investigated the possibility that TSA was affecting properties of NMDA-Rs. To directly measure any long-term affects of TSA on NMDA-Rs, field potentials were recorded in the presence of the AMPA-R antagonist CNQX to isolate the NMDA-R-dependent component of synaptic transmission. […] To further explore the potential affects of TSA on synaptic transmission, we measured the depolarization that occurs during the 100 Hz tetanus used to induce LTP.

histone H3 (Lys14) [9] = assay: Acetylation of histone H3, acute hippocampal slices, area CA1
[10] = test system: survival motor neuron (SMN) protein; details: SMA lymphoid cell lines; Chang et al. (2001); cited from earlier work
SMA-like mice = details: Chang et al. (2001), cited from earlier work
Passive avoidance task = type: in vivo, Sprague-Dawley rats
Experimental: The effect of the exemplary histone deacetylase inhibitor sodium butyrate (NaB) on the exemplary hippocampus-dependent long-term memory paradigm of passive avoidance was determined. In the passive avoidance task, animals associate a dark chamber with an aversive stimulus. In the passive avoidance task, animals are placed into the lighted side of a 2-chamber shuttle box (Med Associates). An open doorway in the middle of the shuttle box leads to a dark side. Animals are allowed to move into the dark side of the chamber, upon which time the door is closed and animals are allowed to explore the dark side for 5 sec prior to receiving a brief electric shock (2 sec, 0.5 mA). Animals are given an additional 5 sec of exploration time prior to removal from the shuttle box. Latency to enter the dark side of the shuttle box is recorded for all experimental animals during the training day. Passive avoidance memory is assessed by measuring latency to enter the dark side of the shuttle box, minus the latency to enter the dark side on the training day. Passive avoidance memory was only tested once from each animal to eliminate the effect of extinction. NaB (1.2 g/kg) was administered 45 min prior to passive avoidance training.

[11] = Novel object recognition task; type: in vivo, Sprague-Dawley rats
Experimental: The effect of the exemplary histone deacetylase inhibitor sodium butyrate (NaB) on the exemplary hippocampus-dependent long-term memory paradigm of novel object recognition was determined. In the novel object task, an animal's ability to discriminate between a familiar and a novel object is tested. Novel object recognition training is performed over 4 consecutive days. During each day, animals are placed individually into a small holding cage prior to introduction to the training arena (44 cm^2). The first day consists of habituating animals to the training arena for 10 min. During the second and third days, the training arena has 8 small Duplo® Blocks (Lego®, 2 each: yellow, blue, red, green) placed 2 cm from the edge of the arena. During days 2 and 3, animals are simultaneously habituated to the Duplo blocks and tested for color and arena-position biases. On day 4, 2 distinct novel objects made from Duplo blocks (approx. 10×5×5 cm) are placed in opposite corners of the arena, 2 cm from the walls. Animals are allowed to explore the objects for 10 min. During each session in the arena, movement of the animal will be tracked by an automated video-based system (Limelight) and the arena and Duplo blocks are thoroughly rinsed with 10% EtOH to remove any scent cues left by subjects. During the final training session on day 4, exploration time of each object is tracked. […] Novel object recognition is assessed by calculating preference indices ([TimeNovel−TimeFamilar]) after exposure of animals to one familiar, and one novel object. Animals received an injection of either saline or NaB 45 min before the training session on day 4.

[12] = sodium butyrate for 20 min vs vehicle
[13] = sodium butyrate for 20 min vs vehicle, listed as NaB
[14] = sodium butyrate 1.2 g/kg 1 h prior to 1-shock contextual fear conditioning, vs saline
[15] = sodium butyrate 1.2 g/kg 1 h prior to 1-shock contextual fear conditioning, vs saline, listed as NaB
[16] = NaB 1.2 g/kg 45 min prior to training
[17] = slices exposed to NaB for 40 min, data not shown
[18] = NaB 45 min before the training session on day 4, vs saline

SMILES: C[C@]12N[C@H](Cc3ccccc31)c1ccccc12 [MK-801]
- freezing behavior 24 h after contextual fear conditioning (contextual fear memory) ([1]; MK-801 300 μg/kg 1 h prior to training, vs saline): blocked; also recorded: less freezing behavior than animals injected with saline
- histone H4 acetylation in area CA1 after fear conditioning [2]: no effect on histone H4 acetylation
- increase in acetylation of histone H3 in area CA1 1 h after fear conditioning (histone H3 (Lys14) [3]): inhibited the increase in H3 acetylation; also recorded: No change in H3 acetylation
- increase in P-ERK2 in area CA1 1 h after fear conditioning (ERK2 [4]): blocked the increase in P-ERK2; also recorded: inhibited the increase in P-ERK2

SMILES: CC(/C=C/C(=O)NO)=C\[C@@H](C)C(=O)c1ccc(N(C)C)cc1 [TSA, trichostatin A]
- input/output relationships and PPF, slices treated with DRB vs DRB and TSA ([5]; 20 min and 3 h after application, data not shown): no significant differences in basal synaptic transmission
- depolarization during 100 Hz tetanus, area under the curve ([5]; TSA 1.65 μM for 20 min vs vehicle 0.05% EtOH): No significant difference in area under the curve
- input/output relationships ([5]; TSA for 20 min vs vehicle): no significant effect; also recorded: No significant differences
- paired-pulse facilitation ([5]; TSA for 20 min vs vehicle): no significant effect; also recorded: unaffected
- input/output relationships ([5]; TSA for 3 h vs vehicle): no significant effect; also recorded: No significant differences
- paired-pulse facilitation ([5]; TSA for 3 h vs vehicle): no significant effect; also recorded: unaffected
- baseline synaptic efficacy where LTP was not induced ([5]; continuous TSA, up to 3 h after start of treatment): no effect on synaptic transmission in the absence of high-frequency stimulation; also recorded: no effect on baseline synaptic efficacy
- levels of P-ERK2 (ERK2 [6]): without affecting levels of P-ERK2; also recorded: no effect on P-ERK2
- hyperacetylation (ras transformed cells): induce hyperacetylation
- morphology of ras transformed cells (ras transformed cells): cause reversion of ras transformed cells to normal morphology
- histone H4 acetylation ([7]; slices treated 1 h, TSA 1.65 μM): increased the acetylation of histone H4; also recorded: significant effect on H4 acetylation
- immunosuppression [8]: induces immunosuppression in a mouse model
- performance in long-term memory tasks (animals deficient in CBP): improved the animals' performance in some long-term memory tasks
- NMDA-R mediated synaptic transmission (NMDA-Rs): unaffected; also recorded: no short or long-term effects
- histone H3 acetylation (histone H3 (Lys14) [9]; slices treated 1 h, PDA 3 μM, FSK 50 μM with 100 μM Ro20-1724, 4αP 3 μM, dFSK 50 μM with 100 μM Ro20-1724, U0126 20 μM, PD98059 50 μM, TSA 1.65 μM): significantly increased acetylation of H3; also recorded: increased acetylation of histone H3

SMILES: CCCC(=O)[O-].[Na+] [sodium butyrate]
- input/output relationships [5, 12]: No significant differences
- paired-pulse facilitation [5, 12]: unaffected
- input/output relationships [5, 13]: no significant affect on input/output relationships
- paired-pulse facilitation [5, 13]: no significant affect
- amount of exon 7-containing SMN protein [10]: effective at increasing the amount of exon 7-containing survival motor neuron (SMN) protein
- expression of SMN protein in spinal cord motor neurons (SMA-like mice; SMA-like mice): increased expression of SMN protein in spinal cord motor neurons
- symptoms (SMA-like mice; SMA-like mice): improved symptoms
- birth rate of severe types of SMA-like mice (SMA-like mice; heterozygous knock-out transgenic SMA-like mice bred): decreased the birth rate of severe types of SMA-like mice
- freezing behavior during training (FIG. 11A) [1, 14]: unaffected
- freezing behavior during training (FIG. 11E, short-term memory study) [1, 14]: unaffected
- freezing behavior on re-exposure to the training chamber 24 h after training (FIG. 11B) [1, 14]: significantly more freezing behavior than animals injected with saline
- freezing behavior during training (FIG. 11A) [1, 15]: no affect on freezing behavior observed during training
- freezing behavior during training (FIG. 11E, short-term memory study) [1, 15]: no significant differences were seen in freezing behavior
- freezing behavior on re-exposure 1 h after training, short-term memory (FIG. 11F) [1, 15]: no effect on freezing behavior
- spontaneous freezing behavior on re-exposure 24 h after mock training, no shock (FIG. 11D) [1]: no affect on spontaneous freezing behavior
- spontaneous freezing behavior on re-exposure 24 h after mock training, no shock (FIG. 11D) ([1]; listed as NaB): no significant differences in the amount of freezing behavior
- spontaneous freezing behavior during mock training, no shock (FIG. 11C) ([1]; vs saline): unaffected
- spontaneous freezing behavior during mock training, no shock (FIG. 11C) ([1]; vs saline, listed as NaB): no acute effects on freezing behavior
- passive avoidance memory (latency to enter dark side) 1 day after training (Passive avoidance task; [16]): did not affect long-term passive avoidance memory
- passive avoidance memory (latency to enter dark side) 7 days after training (Passive avoidance task; [16]): significant affects on passive avoidance memory
- passive avoidance memory (latency to enter dark side) 14 days after training (Passive avoidance task; [16]): significant affects on passive avoidance memory
- long-term passive avoidance memory (Passive avoidance task; NaB 45 min prior to passive avoidance training, vs saline): enhances long-term passive avoidance memory
- acetylation of histone H4 [7, 17]: elevated
- novel object recognition (preference index) 1 day after training [11, 18]: performed significantly better than animals that received saline
- novel object recognition (preference index) 7 days after training [11, 18]: performed significantly better than animals that received saline
- novel object recognition (preference index) day 14 [11, 18]: A trend for enhanced performance
- long-term novel object recognition memory ([11]; NaB 45 min prior to novel object training, vs saline): enhances long-term novel object recognition memory
- acetylation of histone H3 (histone H3 (Lys14) [9]; [17]): elevated
